The supplement of paper PMC10307832

Experiments:
Assay in all cases: relative viability (nuclei count vs DMSO), 5 days (fraction); higher = more cells survive
Kobe2602 + Navitoclax = compound: C1=CC(=CC=C1NC(=S)NNC2=C(C=C(C=C2[N+](=O)[O-])C(F)(F)F)[N+](=O)[O-])F [Kobe2602] + CC1(C)CCC(c2ccc(Cl)cc2)=C(CN2CCN(c3ccc(C(=O)NS(=O)(=O)c4ccc(N[C@H](CCN5CCOCC5)CSc5ccccc5)c(S(=O)(=O)C(F)(F)F)c4)cc3)CC2)C1 [Navitoclax] (partner 0.5 µM)
Outline: (§1)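 Lung cancer cell lines, seeded in 1536-well plates, were treated the following day by pin tool with a single drug or with five library-drug doses (not always all listed) in √10 steps on top of a fixed anchor-drug dose. Cells were fixed and nuclei stained in one step after 5 days, and nuclei were counted. Relative viability is the nuclei count for treated wells divided by that for vehicle wells, reported as medians of duplicate plates.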

Zosuquidar + Navitoclax = compound: O[C@@H](COc1cccc2ncccc12)CN1CCN([C@@H]2c3ccccc3[C@@H]3[C@H](c4ccccc42)C3(F)F)CC1 [Zosuquidar] + CC1(C)CCC(c2ccc(Cl)cc2)=C(CN2CCN(c3ccc(C(=O)NS(=O)(=O)c4ccc(N[C@H](CCN5CCOCC5)CSc5ccccc5)c(S(=O)(=O)C(F)(F)F)c4)cc3)CC2)C1 [Navitoclax] (partner 0.5 µM)
Outline: as §1

Zosuquidar + Tozasertib = compound: O[C@@H](COc1cccc2ncccc12)CN1CCN([C@@H]2c3ccccc3[C@@H]3[C@H](c4ccccc42)C3(F)F)CC1 [Zosuquidar] + Cc1cc(Nc2cc(N3CCN(C)CC3)nc(Sc3ccc(NC(=O)C4CC4)cc3)n2)n[nH]1 [Tozasertib] (partner 0.1 µM)
Outline: as §1

Zosuquidar + Alpelisib = compound: O[C@@H](COc1cccc2ncccc12)CN1CCN([C@@H]2c3ccccc3[C@@H]3[C@H](c4ccccc42)C3(F)F)CC1 [Zosuquidar] + Cc1nc(NC(=O)N2CCC[C@H]2C(N)=O)sc1-c1ccnc(C(C)(C)C(F)(F)F)c1 [Alpelisib] (partner 2 µM)
Outline: as §1

Row | Cell Line | relative viability (Kobe2602 + Navitoclax; first compound 0.2 µM) | relative viability (Kobe2602 + Navitoclax; first compound 0.6325 µM) | relative viability (Kobe2602 + Navitoclax; first compound 2 µM) | relative viability (Kobe2602 + Navitoclax; first compound 6.325 µM) | relative viability (Kobe2602 + Navitoclax; first compound 20 µM) | relative viability (Zosuquidar + Navitoclax; first compound 0.01 µM) | relative viability (Zosuquidar + Navitoclax; first compound 0.03162 µM) | relative viability (Zosuquidar + Navitoclax; first compound 0.1 µM) | relative viability (Zosuquidar + Navitoclax; first compound 0.3162 µM) | relative viability (Zosuquidar + Navitoclax; first compound 1 µM) | relative viability (Zosuquidar + Tozasertib; first compound 0.01 µM) | relative viability (Zosuquidar + Tozasertib; first compound 0.1 µM) | relative viability (Zosuquidar + Tozasertib; first compound 0.3162 µM) | relative viability (Zosuquidar + Tozasertib; first compound 1 µM) | relative viability (Zosuquidar + Alpelisib; first compound 0.01 µM) | relative viability (Zosuquidar + Alpelisib; first compound 0.03162 µM) | relative viability (Zosuquidar + Alpelisib; first compound 0.1 µM) | relative viability (Zosuquidar + Alpelisib; first compound 0.3162 µM) | relative viability (Zosuquidar + Alpelisib; first compound 1 µM) | relative viability (Zosuquidar + Tozasertib; first compound 0.03162 µM)
1 | HARA | 1.22 | 1.19 | 1.16 | 1.06 | 1.11 | 1.1 | 1.15 | 1.1 | 1.1 | 1.14 | 0.111 | 0.112 | 0.0991 | 0.102 | 0.784 | 0.822 | 0.765 | 0.825 | 0.761 | 
2 | HCC-15 | 0.715 | 0.728 | 0.665 | 0.664 | 0.65 | 0.723 | 0.702 | 0.683 | 0.665 | 0.667 | 0.257 | 0.416 | 0.223 | 0.321 | 0.922 | 0.88 | 0.869 | 0.932 | 0.869 | 0.323
3 | HCC-44 | 0.989 | 0.998 | 0.928 | 0.963 | 1.02 | 0.959 | 1.02 | 1.04 | 1.02 | 1.17 | 0.965 | 1.17 | 1.01 | 0.889 | 0.753 | 0.817 | 0.842 | 0.885 | 0.755 | 1.13
4 | HCC-78 | 0.761 | 0.893 |  | 0.78 | 0.91 | 1.04 | 0.768 |  | 0.839 | 0.736 | 0.413 |  | 0.44 | 0.398 | 0.343 | 0.313 |  | 0.325 | 0.379 | 0.329
5 | HCC-366 | 1.07 | 0.98 | 0.832 | 1.06 | 1.06 | 0.97 | 1.18 | 1.02 | 1.01 | 1.09 | 0.153 | 0.195 | 0.121 | 0.102 | 0.519 | 0.449 | 0.337 | 0.438 | 0.401 | 0.395
6 | HCC-827 | 0.987 | 1.13 | 1.06 | 1.03 | 0.981 | 1.04 | 0.991 | 0.991 | 1.02 | 1.03 | 0.413 | 0.401 | 0.386 | 0.386 | 0.935 | 1.01 | 0.759 | 1.07 | 0.96 | 0.369
7 | IA-LM |  | 0.741 | 0.737 | 0.639 | 0.669 | 0.803 | 0.83 | 1.02 | 0.848 | 0.753 |  |  |  |  | 0.818 | 0.908 | 0.714 | 0.909 | 0.773 | 
8 | LCLC-103H |  |  |  |  |  |  |  |  |  |  | 0.388 | 0.445 | 0.462 | 0.496 | 1.02 | 1.12 | 1.01 | 1.02 | 0.926 | 0.462
9 | NCI-H358 |  |  |  |  |  |  |  |  |  |  | 0.109 | 0.093 | 0.1 | 0.0956 | 0.914 | 0.833 | 0.832 | 0.839 | 0.893 | 0.12
10 | NCI-H522 |  |  |  |  |  |  |  |  |  |  | 0.536 | 0.585 | 0.601 | 0.556 |  |  |  |  |  | 0.537
11 | NCI-H650 |  |  |  |  |  |  |  |  |  |  | 0.795 | 0.739 | 0.803 | 0.791 | 1.15 | 0.94 |  | 1.09 | 1.28 | 0.748
12 | NCI-H661 |  |  |  |  |  |  |  |  |  |  | 0.354 | 0.353 | 0.328 | 0.33 | 0.48 | 0.621 | 0.408 | 0.614 | 0.703 | 0.313
13 | NCI-H1299 | 1.07 | 1.04 | 1.06 | 1.08 | 1.02 | 1.06 | 1.02 | 1.03 | 1.01 | 1.04 |  |  |  |  | 1.07 | 0.998 | 1.05 | 0.995 | 1.05 | 
14 | NCI-H1563 |  |  |  |  |  |  |  |  |  |  |  |  |  |  | 0.935 | 0.988 | 0.904 | 0.988 | 0.921 | 
15 | NCI-H1623 |  |  |  |  |  |  |  |  |  |  | 0.43 | 0.435 | 0.421 | 0.407 |  |  |  |  |  | 0.33
16 | NCI-H1648 |  |  |  |  |  |  |  |  |  |  | 0.602 | 0.316 | 0.497 | 0.562 |  |  |  |  |  | 
17 | NCI-H1650 | 1.08 | 1.33 | 0.948 | 1.36 | 1.22 | 1.12 | 1.11 | 1.05 | 1.23 | 1.21 | 0.43 | 0.478 | 0.469 | 0.371 |  |  |  |  |  | 0.426
18 | NCI-H1703 | 1.44 | 1.24 | 1.12 | 0.893 | 1.06 | 1.39 | 1.36 | 1.44 | 1.33 | 1.05 |  |  |  |  | 0.355 | 0.325 | 0.237 | 0.438 | 0.345 | 
19 | NCI-H1792 | 0.67 | 0.626 | 0.604 | 0.609 | 0.695 | 0.603 | 0.621 | 0.53 | 0.635 | 0.359 |  |  |  |  | 0.66 | 0.813 | 0.53 | 0.705 | 0.799 | 
20 | NCI-H2342 |  |  |  |  |  |  |  |  |  |  | 0.499 | 0.55 | 0.608 | 0.597 |  |  |  |  |  | 0.468
21 | SW 900 |  |  |  |  |  |  |  |  |  |  | 0.581 | 0.573 | 0.665 | 0.473 |  |  |  |  |  | 0.583
